Where “and” joins values, the source holds several entries; their conditions need not be identical. Identical values can stand only once. Toxic doses and inconclusive results are not listed.
Test system: L1210 leukemia ip in BDF1 mice, survival T/C
Test: NCI In Vivo Anticancer Drug Screen. Data for tumor model L1210 Leukemia (intraperitoneal) in B6D2F1 (BDF1) mice
Details: endpoint: mean survival time, higher = longer survival
How it was run: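 Read-out is survival time, reported as the treated-group measurement over the vehicle-control measurement.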

[1] = dose: 100.0 mg/kg/injection, schedule: Q04DX003 (ip), vehicle: Klucel (hydroxypropylcellulose) (HPC)
[2] = dose: 200.0 mg/kg/injection, schedule: Q04DX003 (ip), vehicle: Klucel (hydroxypropylcellulose) (HPC)
[3] = dose: 400.0 mg/kg/injection, schedule: Q04DX003 (ip), vehicle: Klucel (hydroxypropylcellulose) (HPC)
[4] = dose: 100.0 mg/kg/injection, schedule: Q01DX001 (ip), vehicle: saline
[5] = dose: 100.0 mg/kg/injection, schedule: Q01DX009 (ip), vehicle: Klucel (hydroxypropylcellulose) (HPC)
[6] = dose: 100.0 mg/kg/injection, schedule: Q04DX003 (ip), vehicle: saline
[7] = dose: 200.0 mg/kg/injection, schedule: Q01DX009 (ip), vehicle: Klucel (hydroxypropylcellulose) (HPC)
[8] = dose: 200.0 mg/kg/injection, schedule: Q04DX003 (ip), vehicle: saline
[9] = dose: 400.0 mg/kg/injection, schedule: Q01DX009 (ip), vehicle: Klucel (hydroxypropylcellulose) (HPC)
[10] = dose: 400.0 mg/kg/injection, schedule: Q04DX003 (ip), vehicle: saline
[11] = dose: 50.0 mg/kg/injection, schedule: Q01DX001 (ip), vehicle: carboxymethylcellulose (CMC)
[12] = dose: 100.0 mg/kg/injection, schedule: Q01DX001 (ip), vehicle: carboxymethylcellulose (CMC)
[13] = dose: 200.0 mg/kg/injection, schedule: Q01DX001 (ip), vehicle: carboxymethylcellulose (CMC)
[14] = dose: 400.0 mg/kg/injection, schedule: Q01DX001 (ip), vehicle: carboxymethylcellulose (CMC)
[15] = dose: 200.0 mg/kg/injection, schedule: Q01DX001 (ip), vehicle: saline
[16] = dose: 400.0 mg/kg/injection, schedule: Q01DX001 (ip), vehicle: saline

COC(=O)c1cc([N+](=O)[O-])c(Cl)c([N+](=O)[O-])c1
T/C (dose: 12.5 mg/kg/injection, schedule: Q01DX009 (ip), vehicle: Klucel (hydroxypropylcellulose) (HPC)): 98 % of control
T/C (dose: 25.0 mg/kg/injection, schedule: Q01DX009 (ip), vehicle: Klucel (hydroxypropylcellulose) (HPC)): 87 % of control
T/C [1]: 89 % of control

Cc1nc2ccc(N=Cc3ccc(N(CCCl)CCCl)cc3)cc2[nH]1
T/C [1]: 102 % of control
T/C [2]: 98 % of control
T/C [3]: 104 % of control

CC1(C)Cc2cccc(C(=O)CCCN3CCCCC3)c2O1
T/C [4]: 104 % of control

CC[C@](C)(O)C(=O)O[C@H]1C(=O)O[C@@H]2C[C@H]3C(C)=CC(=O)[C@@H](O)[C@]3(C)[C@H]3[C@@]4(O)OC[C@]32[C@@H]1[C@@H](C)[C@H]4O
T/C (dose: 0.2 mg/kg/injection, schedule: Q01DX009 (ip), vehicle: saline): 98 % of control
T/C (dose: 0.3 mg/kg/injection, schedule: Q01DX009 (ip), vehicle: saline): 100 % of control
T/C (dose: 0.44 mg/kg/injection, schedule: Q01DX009 (ip), vehicle: saline): 92 % of control
T/C (dose: 0.66 mg/kg/injection, schedule: Q01DX009 (ip), vehicle: saline): 92 % of control
T/C (dose: 1.0 mg/kg/injection, schedule: Q01DX009 (ip), vehicle: saline): 102 % of control

CCOC(=O)C1OC12CCCCC2 (centres undefined)
T/C [5]: 100 % of control
T/C [6]: 92 % of control
T/C [7]: 92 % of control
T/C [8]: 96 % of control
T/C [9]: 100 % of control
T/C [10]: 89 % of control

Cc1ccc(S(=O)(=O)Nc2cc(C)ccc2C)cc1
T/C [11]: 93 % of control
T/C [12]: 95 % of control
T/C [13]: 104 % of control
T/C [14]: 88 % of control

COC(=O)C1(C)CCCC2(C)c3cc(O)c(C(C)C)cc3CCC12 (centres undefined)
T/C (dose: 100.0 mg/kg/injection, schedule: Q01DX001 (ip), vehicle: acetone): 88 % of control
T/C (dose: 200.0 mg/kg/injection, schedule: Q01DX001 (ip), vehicle: acetone): 90 % of control
T/C (dose: 400.0 mg/kg/injection, schedule: Q01DX001 (ip), vehicle: acetone): 93 % of control

CCOC(=O)CC(=O)NC(C)(CCOCc1ccccc1)C(=O)OCC (centres undefined)
T/C [11]: 101 % of control
T/C [12]: 103 % of control
T/C [13]: 110 % of control
T/C [14]: 103 % of control

CCC(CC)C(=O)NC(=O)NC(C)=O
T/C (dose: 75.0 mg/kg/injection, schedule: Q01DX001 (ip), vehicle: Klucel (hydroxypropylcellulose) (HPC)): 91 % of control
T/C (dose: 150.0 mg/kg/injection, schedule: Q01DX001 (ip), vehicle: Klucel (hydroxypropylcellulose) (HPC)): 102 % of control
T/C (dose: 300.0 mg/kg/injection, schedule: Q01DX001 (ip), vehicle: Klucel (hydroxypropylcellulose) (HPC)): 88 % of control

O=[N+]([O-])c1ccc(-c2cnc(Nc3ccc(Cc4ccc(Nc5ncc(-c6ccc([N+](=O)[O-])cc6)s5)c(Cl)c4)cc3Cl)s2)cc1
T/C [1]: 98 % of control
T/C [2]: 106 % of control
T/C [3]: 98 % of control

CC1CN(c2nc3ccccc3o2)C(C)CN1c1nc2ccccc2o1 (centres undefined)
T/C [12]: 96 % of control
T/C [13]: 94 % of control
T/C [14]: 89 % of control

O=C(c1ccccc1)N(c1ccccc1)c1ccccc1
T/C [11]: 107 % of control
T/C [12]: 101 % of control
T/C [13]: 107 % of control
T/C [14]: 103 % of control

Ic1cccc2cc3cccc[n+]3cc12
T/C (dose: 9.9 mg/kg/injection, schedule: Q01DX Z (ip), vehicle: carboxymethylcellulose (CMC)): 102 % of control
T/C (dose: 14.6 mg/kg/injection, schedule: Q01DX Z (ip), vehicle: carboxymethylcellulose (CMC)): 103 % of control
T/C (dose: 22.0 mg/kg/injection, schedule: Q01DX Z (ip), vehicle: carboxymethylcellulose (CMC)): 91 % of control

CC(C)C(C)/C=C/C(C)C1CCC2C3=C(C=CC21C)C1(C)CCCCC1=CC3C1C=C2CCCCC2(C)C2=C1C1CCC(C(C)/C=C/C(C)C(C)C)C1(C)C=C2 (centres undefined)
T/C [1]: 90 % of control
T/C [2]: 100 % of control
T/C [3]: 90 % of control

Nc1ncc(N=O)c(=O)[nH]1
T/C (dose: 100.0 mg/kg/injection, schedule: Q04DX002 (ip), vehicle: Klucel (hydroxypropylcellulose) (HPC)): 96 % of control
T/C (dose: 200.0 mg/kg/injection, schedule: Q04DX002 (ip), vehicle: Klucel (hydroxypropylcellulose) (HPC)): 99 % of control
T/C (dose: 400.0 mg/kg/injection, schedule: Q04DX002 (ip), vehicle: Klucel (hydroxypropylcellulose) (HPC)): 96 % of control and 101 % of control

O=NN(CCCl)C(=O)N[C@H]1CCC[C@@H](O)C1
T/C (dose: 12.0 mg/kg/injection, schedule: Q01DX001 (ip), vehicle: saline with Tween-80): 176 % of control
T/C (dose: 18.0 mg/kg/injection, schedule: Q01DX001 (ip), vehicle: saline with Tween-80): 306 % of control
T/C (dose: 26.0 mg/kg/injection, schedule: Q01DX001 (ip), vehicle: saline with Tween-80): 468 % of control
T/C (dose: 40.0 mg/kg/injection, schedule: Q01DX001 (ip), vehicle: saline with Tween-80): 468 % of control
T/C (dose: 60.0 mg/kg/injection, schedule: Q01DX001 (ip), vehicle: saline with Tween-80): 382 % of control
T/C (dose: 90.0 mg/kg/injection, schedule: Q01DX001 (ip), vehicle: saline with Tween-80): 86 % of control

Cc1nnc(NS(=O)(=O)c2ccc(N=Nc3cc(N=Nc4ccccc4)c(N)nc3N)cc2)s1
T/C [12]: 87 % of control
T/C [13]: 89 % of control
T/C [14]: 97 % of control

CN(N)C(=O)Nc1cccc(Cl)c1
T/C (dose: 75.0 mg/kg/injection, schedule: Q01DX001 (ip), vehicle: carboxymethylcellulose (CMC)): 102 % of control
T/C (dose: 150.0 mg/kg/injection, schedule: Q01DX001 (ip), vehicle: carboxymethylcellulose (CMC)): 107 % of control
T/C (dose: 300.0 mg/kg/injection, schedule: Q01DX001 (ip), vehicle: carboxymethylcellulose (CMC)): 107 % of control

C=C(C)C1Cc2c(ccc3c(=O)c4c(oc23)COc2cc(OC)c(OC)cc2-4)O1 (centres undefined)
T/C [5]: 90 % of control
T/C [7]: 93 % of control
T/C [9]: 95 % of control

O=C(O)/C=C/c1cc(Br)sc1Br
T/C [4]: 96 % of control
T/C [15]: 107 % of control
T/C [16]: 88 % of control

O=C(c1ccccc1)c1cc(O)c(O)c(O)c1
T/C (dose: 100.0 mg/kg/injection, schedule: Q01DX009 (ip), vehicle: other): 99 % of control
T/C [6]: 100 % of control
T/C (dose: 200.0 mg/kg/injection, schedule: Q01DX009 (ip), vehicle: other): 90 % of control
T/C [8]: 94 % of control
T/C (dose: 400.0 mg/kg/injection, schedule: Q01DX009 (ip), vehicle: other): 99 % of control
T/C [10]: 100 % of control

O=C(Nc1ccccc1)Nc1nccs1
T/C [4]: 102 % of control
T/C [1]: 105 % of control
T/C [15]: 106 % of control
T/C [2]: 100 % of control
T/C [16]: 101 % of control

CCCCCCSC(=N)N
T/C (dose: 12.5 mg/kg/injection, schedule: Q01DX001 (ip), vehicle: saline): 95 % of control
T/C (dose: 12.5 mg/kg/injection, schedule: Q04DX002 (ip), vehicle: saline): 94 % of control and 97 % of control
T/C (dose: 12.5 mg/kg/injection, schedule: Q04DX003 (ip), vehicle: saline): 119 % of control
T/C (dose: 25.0 mg/kg/injection, schedule: Q01DX001 (ip), vehicle: saline): 100 % of control
T/C (dose: 25.0 mg/kg/injection, schedule: Q04DX002 (ip), vehicle: saline): 94 % of control and 100 % of control
T/C (dose: 25.0 mg/kg/injection, schedule: Q04DX003 (ip), vehicle: saline): 104 % of control
T/C (dose: 50.0 mg/kg/injection, schedule: Q01DX001 (ip), vehicle: saline): 89 % of control
T/C (dose: 50.0 mg/kg/injection, schedule: Q04DX002 (ip), vehicle: saline): 103 % of control and 106 % of control
T/C (dose: 50.0 mg/kg/injection, schedule: Q04DX003 (ip), vehicle: saline): 102 % of control

Reference: PubChem BioAssay AID248 (DTP/NCI, 2004)
